Test results: article PMC8251916 (Chemistry (Weinheim an Der Bergstrasse, Germany), 2021)

Key:
[1] = test system: Febr1T-K+ (T. brucei G-quadruplex); experiment: FRET melting assay, T. brucei G4; assay type: binding; details: 10 µM ligand, 200 nM DNA; PIPER and 3 not reliable (spectral overlap)
Procedure: (§1) With the library in hand, we began our investigation into G4 stabilization by conducting a Förster resonance energy transfer (FRET) melting assay to assess DNA stabilization using the procedure outlined by De Cian et. al. ^[13] […] The sequences examined (at 200 nM) were the human telomeric G4 in potassium buffer (F21T‐K^+, mixed parallel/hybrid G4) ^[14] and sodium buffer (F21T‐Na^+, antiparallel G4), ^[15] the c‐Myc promoter G‐quadruplex (FmycT‐K^+, parallel G4), ^[16] a polymorphic G4 found in T. brucei (FEBR1T‐K^+, a mixed G4 topology), ^[6b] and a hairpin duplex DNA sequence (F10T‐K^+). Together, these sequences represent targets for therapeutic intervention to treat parasitic infections, ^[6b] or cancer. ^[1b] The topology of each sequence was confirmed independently via circular dichroism (CD, Figure S1). […]
(§2) FRET melting assays were performed to assess ligand affinity for duplex and G-quadruplex
(§3) DNA. Briefly, oligonucleotides of interest were obtained labelled at the 5’ and 3’ ends with FAM (a fluorescence donor) and TAMRA (a fluorescence quencher), respectively. In the folded state, proximity of the donor and quencher result in no observed fluorescence from FAM, since energy is transferred non-radiatively to TAMRA by FRET. As the temperature is raised and the secondary structure denatures, the fluorophores move further apart and the fluorescence signal increases. From the resulting curve, the characteristic melting temperature (Tmax, also referred to as Tm) is defined as the temperature which corresponds to the maxima of the first derivative of the normalised fluorescence signal. The change in melting temperature (ΔTm) induced by the presence of a small molecule ligand provides an indication of the ligand’s ability to stabilise the DNA structure. FRET experiments were performed according to the […]
(§4) procedure reported by De Cian and co-workers[S3] on a Stratagene MX3005P. The method consisted of holding at 25 °C for 5 min, before heating at 1 °C/min to 96 °C in 1 °C increments, […]

[2] = test system: F10T-K+ (hairpin duplex DNA); experiment: FRET melting assay, hairpin duplex DNA; assay type: binding; details: 10 µM ligand, 200 nM DNA; PIPER and 3 not reliable (spectral overlap)
Procedure: as §1, §2, §3, §4

[3] = test system: FmycT-K+ (c-Myc promoter G-quadruplex, parallel); experiment: FRET melting assay, c-Myc promoter G4; assay type: binding; details: 10 µM ligand, 200 nM DNA; PIPER and 3 not reliable (spectral overlap)
Procedure: as §1, §2, §3, §4

[4] = test system: T. brucei; experiment: Trypanocidal activity, alamarBlue assay; assay type: cell-based; details: Trypanosoma brucei; 72 h incubation, alamarBlue fluorescence; read-out: absolute EC50 T. brucei
Procedure: (§5) Doxorubicin, suramin and miltefosine were used as control compounds.[ ^6b , ^9 ] After incubation with varied concentrations of the compounds for 72 h, cell viability was measured using either an alamarBlue™ assay (for MRC5, HeLa and T. brucei) or MTT assay (for L. major). Absolute EC50 values and selectivity indexes were then calculated from dose‐response curves (Table 2 and S14). […]
(§6) Cell culture reagents were purchased from Thermo Fisher Scientific (Waltham, MA, USA) and used as-is. The Dulbecco’s Minimal Essential Medium (DMEM) formulation contained either high glucose (4.5 g/L, catalogue number: 10569) or low glucose (1 g/L, catalogue number:
(§7) 10567). RPMI-1640 was provided without sodium pyruvate and with L-glutamine (catalogue number: 11875). Phosphate Buffered Saline (PBS) contained NaCl (9 g/L), KH2PO4 (144 mg/L) and Na2HPO4-7.H2O (795 mg/L, catalogue number: 10010049). TrypLE Express™ was provided with EDTA (458 mg/L) and without Phenol Red (catalogue number: 12604021).
(§8) MRC-5 cells (human lung fibroblasts) were grown in monolayer (37 °C, 5 % CO2 and 100 % humidity) in DMEM medium (1 g/L glucose), supplemented with 10% heat-inactivated Fetal Bovine Serum (hiFBS), 2 mM L-glutamine, 100 U / mL penicillin and […]
(§9) streptomycin. […]
(§10) Cells were cultured according to ATCC recommendations and were used for the experiments while in the exponential growth phase. […]
hiFBS. Parasites were split every other day and maintained in their experimental growth phase (below 2 million parasites per mL).
(§11) Cytotoxicity was measured through the alamarBlue® assay (Thermo Fisher Scientific).[S6,S13] Briefly, 5×10^3 MRC-5 or HeLa cells were seeded in 96-wells plates (100 µL / well) in the presence of increasing concentrations of compound. After 72 hrs of incubation at 37 °C, 20 µL of alamarBlue® solution (110 ng / ml) was added to each well and cells were reincubated for 4 hrs at 37 °C. Then, 50 µL of 3 % SDS were added to each well. The plate was incubated at 37 °C for an extra hour and then analysed by fluorescence with an Infinite F200 plate reader (TECAN Austria, GmbH). The excitation wavelength was fixed at 550 nm and the emission wavelength at 590 nm. The results are expressed as the concentration of compound that reduces

[5] = test system: F21T-Na+ (human telomeric G-quadruplex, antiparallel); experiment: FRET melting assay, human telomeric G4 in sodium buffer; assay type: binding; details: 10 µM ligand, 200 nM DNA; PIPER and 3 not reliable (spectral overlap)
Procedure: as §1, §2, §3, §4

[6] = test system: F21T-K+ (human telomeric G-quadruplex, mixed parallel/hybrid); experiment: FRET melting assay, human telomeric G4 in potassium buffer; assay type: binding; details: 10 µM ligand, 200 nM DNA; PIPER and 3 not reliable (spectral overlap)
Procedure: as §1, §2, §3, §4

[7] = test system: MRC5 non-tumoral cells; experiment: Cytotoxicity, alamarBlue assay, MRC5; assay type: cell-based, human; details: Homo sapiens, MRC5, 72 h, 72 h incubation, alamarBlue fluorescence; read-out: absolute EC50 MRC5
Procedure: as §5, §6, §7, §8, §9, §10, §11

[8] = test system: L. major; experiment: Leishmaniacidal activity, MTT assay; assay type: cell-based; details: Leishmania major; 72 h incubation, MTT absorbance; read-out: absolute EC50 L. major
Procedure: Doxorubicin, suramin and miltefosine were used as control compounds.[ ^6b , ^9 ] After incubation with varied concentrations of the compounds for 72 h, cell viability was measured using either an alamarBlue™ assay (for MRC5, HeLa and T. brucei) or MTT assay (for L. major). Absolute EC50 values and selectivity indexes were then calculated from dose‐response curves (Table 2 and S14).
Invitrogen). L. major promastigotes (MHOM/IL/80/Friedlin) were cultured at 28 °C, 5 % CO2 in modified RPMI-1640 medium (Thermo Fisher Scientific, Waltham, MA, USA) with 10% hiFBS. Parasites were split every other day and maintained in their experimental growth phase (below 2 million parasites per mL). […]
The results are expressed as the concentration of compound that reduces cell growth by 50 % versus untreated control cells (EC50) using GraphPad Prism 7 (GraphPad Software) to fit the data to a sigmoidal curve. Data are presented as the average of three independent measurements all conducted in triplicate conditions. […]
The leishmaniacidal activity of the compounds on promastigotes L. major (MHOM/IL/80/Friedlin) was carried out as previously described.[S14] Briefly, 4 × 10^6 / mL promastigotes were incubated for 72 h at 28 °C in 96-well plates (50 µL/well) in the presence of increasing concentration of compounds. Cell proliferation was determined using an MTT-based assay (Sigma-Aldrich). Thus, after the 72 h incubation, 10 µL of MTT (5 mg/ml) were added to each well and parasites were reincubated for 4 hrs at 28 °C. Then, 50 µL of 20 % SDS were added to each well. The plate was then incubated at 37°C for 4-16 hrs and analysed using an Infinite F200 plate reader (TECAN Austria, GmbH). The absorbance was measured […]
at a wavelength of 540 nm and the EC50 was calculated as described above. Data are presented as the average of three independent measurements, all conducted in triplicate conditions. […]

[9] = test system: HeLa cervical carcinoma cells; experiment: Cytotoxicity, alamarBlue assay, HeLa; assay type: cell-based, human; details: Homo sapiens, HeLa; 72 h incubation, alamarBlue fluorescence; read-out: absolute EC50 HeLa
Procedure: as §5, §6, §7
MRC-5 cells (human lung fibroblasts) were grown in monolayer (37 °C, 5 % CO2 and 100 % humidity) in DMEM medium (1 g/L glucose), supplemented with 10% heat-inactivated Fetal Bovine Serum (hiFBS), 2 mM L-glutamine, 100 U / mL penicillin and […] streptomycin. HeLa (Human cervical carcinoma cell line) cells were maintained at 37 °C and 5 % CO2 in high glucose DMEM (4.5 g / L) supplemented with 10% hiFBS, 100 U / ml penicillin, […] streptomycin, 2 mM L-glutamine and non-essential aminoacids (1X).
as §10, §11

Compound | ΔTm Febr1T-K+ [1] | ΔTm F10T-K+ [2] | ΔTm FmycT-K+ [3] | EC50 [4] | ΔTm F21T-Na+ [5] | ΔTm F21T-K+ [6] | EC50 [7] | EC50 [8] | EC50 [9]
CN1CCN(CCCN2C(=O)c3ccc(Oc4ccc5c(c4)C(=O)N(CCCN4CCN(C)CC4)C5=O)cc3C2=O)CC1 [Compound 5] | 1 ± 1 °C | 0 ± 1 °C | -3 ± 1 °C | 67 ± 18 µM | -3 ± 1 °C | -3 ± 1 °C | > 100 µM | > 100 µM | > 100 µM
CN1CCN(CCCN2C(=O)c3ccc(C(c4ccc5c(c4)C(=O)N(CCCN4CCN(C)CC4)C5=O)(C(F)(F)F)C(F)(F)F)cc3C2=O)CC1 [Compound 6] | 2 ± 1 °C | 0 ± 1 °C | -4 ± 1 °C | 36 ± 2 µM | -8 ± 1 °C | -2 ± 1 °C | > 100 µM | > 100 µM | > 100 µM
CN1CCN(CCCN2C(=O)c3ccc(C(=O)c4ccc5c(c4)C(=O)N(CCCN4CCN(C)CC4)C5=O)cc3C2=O)CC1 [Compound 7] | 1 ± 1 °C | 0 ± 1 °C | -3 ± 1 °C | 70 ± 13 µM | -3 ± 2 °C | -3 ± 1 °C | > 100 µM | > 100 µM | > 100 µM
CN1CCN(CCCn2c(=O)c3cc4c(=O)n(CCCN5CCN(C)CC5)c(=O)c4cc3c2=O)CC1 [Compound 8] | -2 ± 1 °C | 0 ± 1 °C | -2 ± 1 °C | 52 ± 7 µM | 1 ± 1 °C | 1 ± 1 °C | > 100 µM | > 100 µM | > 100 µM
CN1CCN(CCCNC(=O)c2ccc(C(=O)c3ccc(C(=O)NCCCN4CCN(C)CC4)c(C(=O)NCCCN4CCN(C)CC4)c3)cc2C(=O)NCCCN2CCN(C)CC2)CC1 [Compound 10] | 1 ± 2 °C | 0 ± 1 °C | -1 ± 1 °C | 55 ± 3 µM | -2 ± 1 °C | -2 ± 1 °C | > 100 µM | > 100 µM | > 100 µM
